Assay results: a melting point compilation (Tetko et al.; mined from patent text by program, amines drawn as free bases though some values may be those of a salt)

SMILES | melting point
CC1SC=C2c3ccccc3C=CN2C1=O (configuration not stated) | 67 to 68 °C
COC(=O)c1ccc([N+](=O)[O-])s1 | 74 °C
COC1=C(OC)C(=O)C2=C(CC(CCCCCCCCN3CCN(c4ccccn4)CC3)C2)C1=O | 80 to 84 °C
CCOC(=O)NC1CCCCn2c1nc(-c1ccncn1)cc2=O (configuration not stated) | 168 to 170 °C
CC1=CSC(C)C(=O)N1 (configuration not stated) | 78 to 80 °C
CC1(C2CCC3C4CCC5CC=CCC5(C)C4C(=O)CC32C)OCCO1 (configuration not stated) | 130 to 135 °C
CC(C)[Si](C#Cc1c2ccccc2c2ccc3c(C#C[Si](C(C)C)(C(C)C)C(C)C)c4ccccc4c4ccc1c2c34)(C(C)C)C(C)C | 318 to 321 °C
CCOCc1nc2c(N)nc3ccccc3c2n1NCCC(C)C | 129 to 132 °C
COC(=O)Cc1cc(N)n(-c2ccccn2)n1 | 84 to 85 °C
O=[N+]([O-])c1ccc(C(O)C(CO)[N+](=O)[O-])cc1 (configuration not stated) | 105 to 107 °C
COC(=O)Nc1cn2nc(OCc3cc(OC)c(OC)c(OC)c3)ccc2n1 | 213 to 215 °C
NC(=O)CCC1CCC(=O)N1 (configuration not stated) | 178 °C
C=CCc1c(C(=O)OCC)nc2ccccc2c1O | 146 to 147 °C
FC(F)(F)c1cccc(C(Cl)(Cl)Cl)c1Cl | 32 to 33 °C
CC1(C)CC2(CC(c3ccc(F)cc3)=C1/C=C/[C@H]1C[C@H](O)CC(=O)O1)OCCO2 (relative stereo) | 142 to 144 °C
COC(=O)c1ccc2c(c1)C(CNC(=O)OC(C)(C)C)CCC2 (configuration not stated) | 72 to 80 °C
CCOC(=O)C(=CNc1nnc(C)s1)C(=O)c1cc(F)c(F)cc1F | 147 to 151 °C
Cc1oc(C=Cc2ccc(Cl)cc2)nc1CC(=O)O | 157 to 158 °C
CCc1nnc(C=Cc2ncc([N+](=O)[O-])n2C)s1 | 165 °C
Nc1cc2ccncc2c2sc3ccccc3c12 | 220 to 225 °C
CN(C)C1CCN(c2nc(N3CCc4ccccc4C3)c3ncnc(N4CCOCC4)c3n2)CC1 | 49 to 53 °C
COc1cc(OC)c(-c2ccc(C(=O)O)s2)cc1/C=C/C(=O)c1ccc(C(=O)O)cc1 | > 260 °C
CN(C)C(=O)Cn1nnnc1S | 204 to 205 °C

SMILES | melting point
CCCc1c(C(=O)C(C)C)c2ccc(C(N)=O)cc2n1Cc1ccccc1NC(C)=O | 235 to 236 °C
CCOC(=O)c1cc(CC)sc1Nc1ccccc1N | 50 to 52 °C
Cc1nn(C)c(NCC(C)(C)C)c1N | 65 to 69 °C
CC(=O)Nc1ccc(C(=O)NC(=O)N2CCC(Oc3ccc(Cl)cc3)CC2)cc1 | 79 °C
CC(=O)Nc1nc(CCc2ccc(CC(=O)O)s2)cs1 | 172 to 174 °C
O=C1C(=O)c2ccccc2C2=C1SCC1(CCN(c3cnccn3)CC1)O2 | 255 to 256 °C
COc1cccc(C(N)=O)c1N | 140 to 141 °C
CCC1(CC)C(=O)Nc2ccc(-c3ccc(C#N)n3C)cc21 | 233 to 235 °C
Nc1c(-c2cc(Cl)ccc2O)c2cc(Cl)c(C(F)(F)F)cc2[nH]c1=O | 245 to 246 °C
CN1CCC(=O)N(c2ccccc2)c2cc(Cl)ccc21 | 143 to 144 °C
Cc1cc([N+](=O)[O-])c(C)cc1SCc1cccc(C(F)(F)F)c1 | 85 to 87 °C
CC(=O)SCCC(=O)N1CCC[C@H]1C(=O)O | 89 to 90 °C
O=C(Oc1cccc(C(F)(F)F)c1)n1c2c(c(=O)n(C3CCCCO3)c1=O)CCC2 (configuration not stated) | 130 °C
CCOC(=O)C1CCc2c([nH]c3ccc(N)cc23)C1 (configuration not stated) | 123 to 124 °C
CCC(Oc1ccccc1C(C)(C)C)C(=O)OC1CC(O)C=C2C=CC(C)C(CCC3CC(O)CC(=O)O3)C21 (mixture of isomers) | 176 to 178 °C
CCCCCCCCCCCCCCCCSCC(CNS(=O)(=O)CCCCl)OC(=O)NC (configuration not stated) | 84.5 to 85.5 °C
COCC1CN(c2ccc3cc(OC(C)=O)ccc3c2)C(=O)O1 (configuration not stated) | 110 to 112 °C
CC(C)(C)c1cc(N)n(-c2c(Cl)cc(C(F)(F)F)cc2Cl)n1 | 110 to 120 °C
CC(C)c1nc2c([nH]1)c(=S)[nH]c(=O)n2-c1cccc(Cl)c1 | 290 to 293 °C
CCOC(=O)OC1=C(c2c(C)cc(C)cc2C)C(=O)N(N(C)C)C12CCN(N(C)C)CC2 | 105 °C
CCc1cc(Br)c2c(O)c(C(=O)OC)c(C(=O)OC)nc2c1 | 207 to 208 °C
CCCCNc1c([N+](=O)[O-])cc(C(=O)O)cc1S(N)(=O)=O | 192 °C
COC(=O)CCCC(=O)c1ccco1 | 42.5 °C

SMILES | melting point
CN(C)CCC1CSc2c(C(=O)O)c(=O)c3cc(F)c(N4CCN(C)CC4)cc3n21 (configuration not stated) | 221 to 223 °C
CCCCCS(=O)(=O)NC(=O)/C=C/c1ccc(OCCOC)cc1Oc1ncc(Br)cc1C | 160 °C
CC(C)(O)c1ccc(C#N)cc1 | 45 to 47 °C
O=C(O)CNC(=O)Nc1ccc(Cl)cc1 | 218 °C
O=C1c2ccc([N+](=O)[O-])cc2C(=O)N1C1CCN(C2CCCCC2)CC1 | 265 to 270 °C
CCOC(=O)c1cn(NC=O)c2cc(Cl)c(F)cc2c1=O | 263 to 264 °C
CCOC(=O)CCc1csc2c(C(=O)OCC)c(=O)c3cc(F)c(Cl)cc3n12 | 200 °C
CCCc1cn(C)c2c(=O)[nH]c(-c3cc(S(=O)(=O)N4CCN(CCCOC(C)=O)CC4)ccc3OCC)nc12 | 157 to 158 °C
CN(C)C1(c2ccccc2)CCC(CNC(=O)Oc2ccccc2)CC1 (configuration not stated) | 108 to 124 °C
Cc1ccc2[nH]c(=O)oc(=O)c2c1 | 257 °C
CN(C)C(=O)c1ccc([N+](=O)[O-])cc1Cl | 116 to 117 °C
CC1(C)C2CC1C(=O)CC2=O | 80 to 81 °C
Cc1cc(O)nc2c1CCCC2 | 250 to 252 °C
COC(=O)c1cccc(C(=O)OC)c1S(=O)(=O)NC(=O)Nc1nc(OC)cc(OC)n1 | 164 to 167 °C
COC(=O)c1ccc(CC23CCCCN2C(=O)N(c2cc(Cl)cc(Cl)c2)C3=O)cc1 (configuration not stated) | 51 °C
CC1=C(c2ccc(CC(C)NCC(O)c3cccc(Cl)c3)cc2)CCC(=O)N1 (configuration not stated) | 103 to 106 °C
O=[N+]([O-])c1ccc2[nH]cc(C3=CCN(Cc4ccccc4)CC3)c2c1 | 168 to 170 °C
CC(=O)N1CCN(c2cncc(Cl)n2)CC1 | 106 to 108 °C
CCCCCCCCCC1OC1C(=O)O (configuration not stated) | 56 to 57 °C
O=C(O)C1=Cc2cc(Cl)c(Oc3cccnc3)cc2OC1C(F)(F)F (configuration not stated) | 238 to 239 °C
COc1cccn2c(=O)c(CCN3CCc4oc5ccccc5c4C3)c(C)nc12 | 151 °C
Cc1nn(-c2cc(Oc3ccc(O)cc3)c(Cl)cc2F)c(=O)n1C(F)F | 162 °C
O=C(O)CCNc1c2ccc(Cl)cc2nc2c(=O)[nH][nH]c(=O)c12 | 356 to 359 °C

Other lines, results leading:

melting point | SMILES
215 to 220 °C | O=C(O)C1Cc2c(ncn2CCc2ccccc2)CN1C(=O)Cc1ccccc1 (configuration not stated)
78 to 83 °C | CCc1oc2ccccc2c1C(=O)c1ccc(OCCO)cc1
130 °C | COc1ccccc1C(=O)NN=C(CC(C)C)c1ccncc1
235 °C | COc1ccc(-c2coc3c(C)c(O)ccc3c2=O)cc1
166 to 168 °C | O=C(O)COc1ccc(SCc2cc(-c3ccc(C(F)(F)F)cc3)no2)c2c1CCC2
232 to 234 °C | CCc1ccc(S(=O)(=O)Nc2ccccc2/C=C/c2ccncc2)cc1
41.1 °C | CC(C)NCCCOc1ccc(N)cc1Cc1ccccc1
305 to 308 °C | Nc1nc2c(ncn2Cc2ccccc2)c(=O)[nH]1
184 to 186 °C | COc1ccc(Nc2ncnc(NCc3ccco3)n2)cc1
176 to 177 °C | O=C(Nc1ccccc1Oc1ccc(Cl)cc1Cl)C1CCN(C(=O)c2ccccc2)CC1
141 °C | CSc1ccc(C(O)(c2ccc(Cl)cc2)C2CCN(CCO)C2=O)cc1 (configuration not stated)
192 to 195 °C | Cc1ccccc1[C@H]1O[C@H](CC(=O)O)C(=O)N(CC(C)C)c2ccccc21 (relative stereo)
189 to 190 °C | CC(C)c1cccc(N2CCN(c3cccc(C(=O)O)c3)C2=O)c1
188 to 190 °C | CCCCS(=O)(=O)c1ccc(CCc2nccn3c(CC#N)ccc23)cc1
111 to 115 °C | CC(O)c1ccc(-c2ccc(N)cc2)cc1 (configuration not stated)
173 °C | O=C(Nc1cnc(-c2ccccc2)nc1C(=O)O)OCc1ccc(-c2ccccc2)cc1
110 to 115 °C | COc1cc(C(=O)N2CCC(CCN3CCC(C(=O)c4nc5ccccc5n4Cc4ccccn4)CC3)(c3ccc(Cl)c(Cl)c3)C2)cc(OC)c1OC (configuration not stated)

melting point | SMILES
169 to 171 °C | Cc1ccc(C(=O)c2cc3cc(Br)ccc3n2C)cc1
97 to 105 °C | O=C(O)c1ccc(OCCNC(=O)C2Cc3ccccc3N2S(=O)(=O)c2ccc(-c3cccc(C(F)(F)F)c3)cc2)cc1F (configuration not stated)
177 to 178 °C | CCOc1nn(Cc2ccnc(OCc3cn4c(-c5ccccc5)cccc4n3)c2)cc1CCC(=O)O
188 °C | CN1CCC(C(=O)Nc2ccc(CN(C)C3CCOCC3)cc2)=Cc2cc(-c3ccc(C(F)(F)F)cc3)ccc21
98 to 103 °C | OCc1ccccc1-c1ccccc1CO
191 to 192 °C | CC(C)(C)n1nnc(NC(=O)C(c2ccccc2)c2ccccc2)n1
131 to 133 °C | Cc1ccccc1Nc1c(C(=O)C(C)C)cnc2c(O)cccc12
216 to 218 °C | O=C(O)C(Cc1ccccc1)Nc1cc(-c2ccc(CCc3ccccc3)cc2)ncn1 (configuration not stated)
338 to 339 °C | O=C=Nc1ccc(-c2n[nH]c3c2Cc2ccccc2-3)cc1
99 to 101 °C | COc1cccc(-c2nn(Cc3ccccc3)c3ncnc(Cl)c23)c1
151 °C | COC(=O)c1cc(C(=O)c2ncc3ccccn23)ccc1[N+](=O)[O-]
89 to 90 °C | Cc1oc(-c2ccccc2)nc1COc1cccc(N)c1
120 °C | CCC(O)(CO)c1ccc(OCc2ccc3ccccc3c2)c(OC)c1 (configuration not stated)
209 to 210 °C | CC(NC(=O)c1ccc(I)cc1)C(O)c1ccccc1 (configuration not stated)
140 to 141 °C | C=CCOC(=O)c1cccc(NC(=O)NCC(=O)Nc2ccccc2C(=O)c2cccs2)c1
87 to 91 °C | CCOC(=O)CCCCC(NS(=O)(=O)c1ccc(C)cc1)c1ccc2ccccc2c1 (configuration not stated)
